# Reference: US20130136712A1, “Malodor Control Compositions Comprising Malodor Control Polymers And Acid Catalysts And Methods Thereof” (priority 2011, published 2013)
# Legend:
# [1] = Table 1, Accord A; cited from earlier work
# [2] = tested on: Soiled sponge samples (microbe reduction); experiment: Odor prevention performance, SOLARIS detection of acidic respiratory byproducts; format: cell-based; details: sponge treated 15 minutes, dried 12 hours; incubated 120 hrs at 37° C.
# Method: The Control formulation containing no malodor control polymer or zinc salt, and Formulations containing individual polymers, zinc salts, and zinc-polymer complexes are compared for their effect on odor prevention, through microbe reduction.
# Soiled sponge samples were cut into 1×6 cm strips and treated with the solutions (Table 10) for 15 minutes and dried at ambient temperature for 12 hours. The treated 1 cm strips were then cut into lx1 cm pieces, placed into SOLARIS scintillation vials, and 1 ml of MOPS buffer was added. The open vials were placed into outer SOLARIS vials containing thymolphthalein blue pH indicator and the vials were finally capped. The sealed vials were placed into a SOLARIS machine and incubated for 120 hrs at 37° C. Colorimetric measurements were conducted according to SOLARIS VIV protocol and the detection times of acidic respiratory byproducts were record (Table 10).
# [3] = Malodor control performance of HMPs, headspace SPME GC/MS of spiked test solution; details: 5 ml test solution spiked with 5 microliters; 2 hours room temperature, 30 minutes 35° C.; Control = 1.0
# Method: This example illustrates the malodor efficacy of the HMPs of the present invention. Isovaleric acid was chosen as a chemical surrogate for body odor while butylamine was used as a representative for amine-containing odors such as fish, pet urine, etc. Hydrophobic greasy cooking odors were represented by aldehydes such as nonanal.
# The solutions are first equilibrated at room temperature for 2 hours, then incubated at 35° C. for 30 minutes. The headspace of each vial is finally sampled using a polydimethyl siloxane (PDMS) / Solid-Phase-Micro-Extraction (SPME) fiber and analyzed by GC/MS. The reductions in head space concentrations of odor molecules are measured and the data are normalized to Control.
# Lower numbers denote high levels of malodor molecules present in the solution that are attributed to high malodor control efficacy of polymers.
# [4] = Sulfur odor control performance of zinc polymer complexes, headspace GC/MS; details: spiked with 3 parts-per-million; 2 hours room temperature, 30 minutes 35° C.; Control = 1.0
# Method: Butanethiol and dipropoyl sulfide were chosen as chemical surrogates for sulfur containing odors such as kitchen (onion/garlic), sewage, etc. These two molecules also enable the assessment of efficacy of polymer for sulfur molecules having different degrees of hydrophobicity (e.g more hydrophobic dipropylsulfide is usually harder to mitigate with hydrophilic technologies such as cyclodextrin).
# 5 ml test solution was placed in a GC-MS vial and spiked with 3 parts-per-million of butanethiol or dipropylsulfide. The solutions were first equilibrated at room temperature for 2 hours, then incubated at 35° C. for 30 minutes. The headspace of each vial was finally sampled using a PDMS/SPME fiber and analyzed by GC/MS. The reductions in head space concentrations of sulfur molecules were measured and the data were normalized to Control (Table 9).
# [5] = benchmark for HMPs; cited from earlier work
molecule,measurement,setting,value
"C=CCCCCCCCCC=O [Intreleven Aldehyde, undec-10-en-1-al]",VP(torr) @25° C.,[1],0.060 torr
[Cl-].[Cl-].[Zn+2] [ZnCl2],Respiratory Byproducts Detection Time,[2],3.38 h
same,Butylamine (Fish) head space concentration normalized to Control,[3],0.0
same,Isovaleric Acid (Body) head space concentration normalized to Control,[3],1.0
same,Nonanal (Grease) head space concentration normalized to Control,[3],1.0
same,Butanethiol head space concentration normalized to Control,[4],0.8
same,Dipropylsulfide head space concentration normalized to Control,[4],1.0
"CC(C=O)Cc1ccc(C(C)C)cc1 (stereo not drawn) [Cymal, Alpha-methyl-p-isopropyl phenyl propyl aldehyde]",VP(torr) @25° C.,[1],0.007 torr
"CC(C)c1cccc(C(C)CC=O)c1 (stereo not shown) [Florhydral, 3-(3-Isopropyl-phenyl)-butyraldehyde]",VP(torr) @25° C.,[1],0.008 torr
C=CC(C)CCC=C(C)CCC=O (stereo not shown) [Floral Super],VP(torr) @25° C.,[1],0.030 torr
"COC1CC2CC1C1CC(C=O)CC21 (stereo not shown) [Scentenal, octahydro-5-methoxy-4,7-Methano-1H-indene-2-carboxaldehyde]",VP(torr) @25° C.,[1],0.010 torr
hydroxypropyl modified beta cyclodextrin,ambient temperature water solubility (benchmark),[5],≥ 60 g/100 ml
COc1ccccc1C=O [o-anisaldehyde],VP(torr) @25° C.,[1],0.032 torr
